Test results reported in US20220380385A1, “PYRIMIDINE FIVE-MEMBERED NITROGEN HETEROCYCLIC DERIVATIVE, PREPARATION METHOD THEREOF AND PHARMACEUTICAL USE THEREOF” (TUOJIE BIOTECH(SHANGHAI) CO., LTD., priority 2019, published 2022).

Legend:
[1] = In vivo pharmacokinetics in cynomolgus monkeys (gavage); conditions: male, plasma, po, 5 mg/kg, original drug, cynomolgus monkey, 5 mpk
Procedure: Cynomolgus monkeys were used as the test animals. The plasma drug concentration at different times after the cynomolgus monkeys were given the compounds of the invention by gavage was determined by using the LC/MS/MS method. The in vivo pharmacokinetic behavior of the compounds of the present invention in cynomolgus monkeys was studied, and pharmacokinetic characteristics thereof were evaluated.
Test animals: 3 healthy, 2-5 years old male cynomolgus monkeys in each group;
Administration by gavage: a certain amount of drug was weighed, and 0.5% by mass of hypromellose, 0.1% by volume of Tween 80 and 99.4% by volume of water were added thereto to formulate a white suspension at 1 mg/mL.
The cynomolgus monkeys were fasted overnight, and then the drug was administered by gavage at a dose of 5 mg/kg.
Cynomolgus monkeys were administered the compounds of the present invention by gavage. At 0.25, 0.5, 1, 2, 4, 8 and 24 hours after administration, 0.2 mL of blood was collected from the peripheral vein and placed in a test tube containing EDTA-K2. The tube was centrifuged at 2 to 8° C., 2000 rpm for 10 minutes to separate the plasma, which was stored at −75° C.
Determination of the content of the test compounds in cynomolgus monkey plasma after administration of different concentrations of drugs by gavage: 55 μL of cynomolgus monkey plasma at each time after administration was taken, and 200 μL of a solution of the internal standard verapamil or dexamethasone in acetonitrile. The mixture was mixed by vortexing for 30 seconds, centrifuged at 4° C., 3900 rpm for 15 minutes. The supernatant of the plasma samples were collected and diluted three times with water, and 15 μL was taken for LC/MS/MS analysis.

[2] = target: T1, full-length SHP2 (aa 1-593) (Homo sapiens, UniProt Q06124); test: Activity on SHP2 phosphatase (DiFMUP fluorescence)
T1 sequence (Q06124 1-593): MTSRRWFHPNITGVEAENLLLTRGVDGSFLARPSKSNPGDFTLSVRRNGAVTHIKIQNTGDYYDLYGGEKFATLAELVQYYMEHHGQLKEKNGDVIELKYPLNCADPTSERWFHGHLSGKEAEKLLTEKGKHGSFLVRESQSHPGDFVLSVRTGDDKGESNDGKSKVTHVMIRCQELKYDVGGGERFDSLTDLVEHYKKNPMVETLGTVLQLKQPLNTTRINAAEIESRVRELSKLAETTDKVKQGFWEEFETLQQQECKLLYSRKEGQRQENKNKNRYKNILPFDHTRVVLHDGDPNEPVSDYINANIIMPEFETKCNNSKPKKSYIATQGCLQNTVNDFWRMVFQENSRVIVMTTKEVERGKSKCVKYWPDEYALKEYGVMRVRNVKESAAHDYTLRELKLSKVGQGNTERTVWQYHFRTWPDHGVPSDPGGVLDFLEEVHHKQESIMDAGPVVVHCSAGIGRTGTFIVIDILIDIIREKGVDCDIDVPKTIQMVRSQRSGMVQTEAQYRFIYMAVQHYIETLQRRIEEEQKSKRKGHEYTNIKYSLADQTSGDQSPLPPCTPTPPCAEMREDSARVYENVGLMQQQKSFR
Procedure: 0.2 nM recombinantly expressed full-length SHP2 (aa 1-593), 0.5 nM activated polypeptide IRS1 with dual phosphorylation sites (sequence: H2N-LN(pY)IDLDLY(dPEG8)LST(pY)ASINFQK-amide), and a series of concentrations of the test compound (final concentrations of 1 μM, 0.3 μM, 0.1 μM, 0.03 μM, 0.01 μM, 0.003 μM, 0.001 M, 0.0003 μM, 0.0001 μM and 0.00003 μM) were added into the phosphatase reaction solution (60 mM HEPES, PH 7.5 0.005% Brij-35, 75 mM NaCl, 75 mM KCl, 1 mM EDTA, 5 mM DTT), followed by shaking (350 rpm) at room temperature for 30 minutes. Then the reaction substrate DiFMUP was added at a final concentration of 30 μM, and the reaction solution was reacted at room temperature for 30 minutes. Then the phosphatase reaction was stopped by adding 5 μL of the reaction stop solution (60 mM HEPES, pH 7.5, 0.2% SDS). Ex358 nm/Em455 fluorescence value was read on the fluorescence plate reader MD SpectraMax.
The IC50 value of compounds was calculated by using the four-parameter logit method. […] Different concentrations correspond to different inhibition rates of phosphatase activity. A reverse curve was plotted and the IC50 of the inhibitors was calculated from the curve. The IC50 of compounds was calculated by using Primer premier 6.0.

CYP2C9 = target: T2, CYP2C9 (Homo sapiens, UniProt P11712); test: CYP inhibition in mixed human liver microsomes, CYP2C9 (diclofenac sodium); type: in vitro ADME
T2 construct: Mixed human liver microsomes from 150 donors; tissue Corning 452117; host or cells: pooled human liver microsomes (150 donors)
T2 sequence (P11712 whole entry): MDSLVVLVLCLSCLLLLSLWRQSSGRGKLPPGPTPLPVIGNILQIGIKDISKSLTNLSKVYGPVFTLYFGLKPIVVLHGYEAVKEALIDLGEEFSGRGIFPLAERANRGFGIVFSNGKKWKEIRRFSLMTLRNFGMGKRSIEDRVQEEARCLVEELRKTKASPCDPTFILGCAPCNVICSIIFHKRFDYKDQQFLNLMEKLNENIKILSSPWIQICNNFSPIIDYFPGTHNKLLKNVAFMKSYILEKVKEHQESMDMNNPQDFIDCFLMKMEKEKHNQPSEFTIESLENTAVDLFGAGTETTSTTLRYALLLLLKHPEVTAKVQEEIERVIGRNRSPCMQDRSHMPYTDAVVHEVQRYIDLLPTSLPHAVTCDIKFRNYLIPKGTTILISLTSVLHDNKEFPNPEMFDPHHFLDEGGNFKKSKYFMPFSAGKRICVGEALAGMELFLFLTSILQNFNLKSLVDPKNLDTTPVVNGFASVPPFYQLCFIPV
Procedure: Mixed human liver microsomes from 150 donors (purchased from Corning, catalog number 452117) were used to evaluate the representative substrate metabolic responses of the five main human CYP subtypes (CYP1A2, CYP2C9, CYP2C19, CYP2D6 and CYP3A4/5). The influence of different concentrations of test compounds on the metabolic responses of phenacetin (CYP1A2), diclofenac sodium (CYP2C9), S-mephenytoin (CYP2C19), bufurolol hydrochloride (2D6) and midazolam (CYP3A4/5) was determined by liquid chromatography tandem mass spectrometry (LC/MS/MS).
200 μL of the reaction system (100 mmol/L phosphate buffer, pH 7.4, containing 0.3% DMSO, 0.6% acetonitrile and 0.1% methanol by volume respectively) with 30 µM phenacetin, 10 μM diclofenac sodium, 35 μM S-mephenytoin, 5 μM bufurolol hydrochloride, 3 μM midazolam, 1 mM NADPH, test compound (at a concentration of 0.1, 0.3, 1, 3, 10 and 30 μmol/L respectively) or positive compound or blank control and mixed human liver microsomes (0.2 mg/mL) was incubated at 37° C. for 5 minutes. […]
The peak area was calculated based on the chromatograms. The residual activity ratio (%) was calculated using the following equation: […]
The CYP median inhibitory concentration (IC50) was calculated by Excel XLfit 5.3.1.3.

[2H]C([2H])([2H])Nc1nccc(Sc2c(C)nc(N3CCC4(CC3)Cc3ncccc3[C@H]4N)n3ccnc23)c1Cl [Example 3, (S)-1′-(8-((3-Chloro-2-((methyl-d3)amino)pyridin-4-yl)thio)-7-methylimidazo[1,2-c]pyrimidin-5-yl)-5,7-dihydrospiro[cyclopenta[b]pyridine-6,4′-piperidin]-5-amine]
AUC ([1]; read-out: Area under curve AUC): 72300 ng·h/mL
Cmax ([1]; read-out: Maximum blood conc. Cmax): 12200 ng/mL
IC50 [2]: 4.5 nM
IC50 (CYP2C9): > 20000 nM
